Assay results taken from patent US20030032580A1, “Use of agonists or antagonists of the 5-HT7 receptor to treat disorders of the bladder” (Synaptic Pharmaceutical Corporation, priority 1999, published 2003).
Where “and” joins values, the source holds several entries; their conditions need not be identical. Identical values can stand only once.

Legend:
[1] = molecular target: T1, 5-HT7 receptor (first phase of the concentration-effect curve to 5-CT in the rat bladder) (Rattus norvegicus, UniProt P32305); assay: Electrically stimulated rat bladder strips: first (high potency) phase of the concentration-effect curve to 5-CT; type: cell-based; conditions: for effect on high potency responses to 5-CT: pindolol 1 μM, tropisetron 10 μM, ketanserin 0.1 μM
T1 construct: from tissue; host or cells: rat urinary bladder detrusor strips
T1 sequence (P32305 whole entry): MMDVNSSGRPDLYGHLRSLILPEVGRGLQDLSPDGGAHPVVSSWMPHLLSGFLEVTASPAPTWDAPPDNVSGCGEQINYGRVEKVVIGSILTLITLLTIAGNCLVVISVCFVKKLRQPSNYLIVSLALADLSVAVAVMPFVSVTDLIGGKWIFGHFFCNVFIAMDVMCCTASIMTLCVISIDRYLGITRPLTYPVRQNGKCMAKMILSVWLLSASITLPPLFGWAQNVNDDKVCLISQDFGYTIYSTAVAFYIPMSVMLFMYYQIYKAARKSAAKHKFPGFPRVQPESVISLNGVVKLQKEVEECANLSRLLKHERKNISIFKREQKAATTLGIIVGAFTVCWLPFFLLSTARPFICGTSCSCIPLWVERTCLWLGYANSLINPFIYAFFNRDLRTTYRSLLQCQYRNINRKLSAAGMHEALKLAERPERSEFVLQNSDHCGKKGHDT

[2] = molecular target: T2, 5-HT2B receptor (second phase of the concentration-effect curve to 5-CT in the rat bladder) (Rattus norvegicus, UniProt P30994); assay: Electrically stimulated rat bladder strips: second (low potency) phase of the concentration-effect curve to 5-CT; type: cell-based; conditions: for effect on low potency responses to 5-CT: pindolol 1 μM, tropisetron 10 μM, ketanserin 0.1 μM
T2 construct: from tissue; host or cells: rat urinary bladder detrusor strips
T2 sequence (P30994 whole entry): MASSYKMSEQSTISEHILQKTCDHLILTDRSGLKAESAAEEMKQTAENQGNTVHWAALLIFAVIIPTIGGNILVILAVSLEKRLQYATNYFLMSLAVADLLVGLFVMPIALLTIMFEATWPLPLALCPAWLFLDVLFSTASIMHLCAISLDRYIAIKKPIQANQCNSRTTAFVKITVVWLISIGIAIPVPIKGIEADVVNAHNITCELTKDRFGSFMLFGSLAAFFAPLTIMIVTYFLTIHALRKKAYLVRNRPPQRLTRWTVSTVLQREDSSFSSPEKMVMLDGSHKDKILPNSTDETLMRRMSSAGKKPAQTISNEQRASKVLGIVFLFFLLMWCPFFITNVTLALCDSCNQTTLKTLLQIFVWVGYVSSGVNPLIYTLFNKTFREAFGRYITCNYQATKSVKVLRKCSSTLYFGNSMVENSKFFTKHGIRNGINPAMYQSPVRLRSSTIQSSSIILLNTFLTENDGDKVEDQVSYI

[3] = molecular target: cloned rat 5-HT7 receptor (Rattus norvegicus, UniProt P32305); conditions: references 2 and 3; cited from earlier work
cloned rat 5-HT7 receptor, sequence (P32305 whole entry): as the sequence (P32305 whole entry) above

[4] = molecular target: 5-HT1B (Rattus norvegicus, UniProt P28564); conditions: Hoyer, 1989; Hoyer et al., 1994; cited from earlier work
5-HT1B, sequence (P28564 whole entry): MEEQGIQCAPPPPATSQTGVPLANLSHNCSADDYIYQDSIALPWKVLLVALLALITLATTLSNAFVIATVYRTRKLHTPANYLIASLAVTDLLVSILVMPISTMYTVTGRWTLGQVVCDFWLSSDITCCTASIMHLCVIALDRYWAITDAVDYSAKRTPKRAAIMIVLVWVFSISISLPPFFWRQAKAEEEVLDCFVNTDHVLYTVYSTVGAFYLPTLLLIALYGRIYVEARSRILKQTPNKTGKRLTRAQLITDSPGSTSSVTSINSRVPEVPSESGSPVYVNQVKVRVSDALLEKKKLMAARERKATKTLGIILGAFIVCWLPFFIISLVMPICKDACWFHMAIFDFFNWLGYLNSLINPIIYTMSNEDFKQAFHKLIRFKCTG

[5] = molecular target: T3, 5-HT1A (Homo sapiens, UniProt P08908); conditions: Hoyer, 1989; cited from earlier work
T3 sequence (P08908 1-422): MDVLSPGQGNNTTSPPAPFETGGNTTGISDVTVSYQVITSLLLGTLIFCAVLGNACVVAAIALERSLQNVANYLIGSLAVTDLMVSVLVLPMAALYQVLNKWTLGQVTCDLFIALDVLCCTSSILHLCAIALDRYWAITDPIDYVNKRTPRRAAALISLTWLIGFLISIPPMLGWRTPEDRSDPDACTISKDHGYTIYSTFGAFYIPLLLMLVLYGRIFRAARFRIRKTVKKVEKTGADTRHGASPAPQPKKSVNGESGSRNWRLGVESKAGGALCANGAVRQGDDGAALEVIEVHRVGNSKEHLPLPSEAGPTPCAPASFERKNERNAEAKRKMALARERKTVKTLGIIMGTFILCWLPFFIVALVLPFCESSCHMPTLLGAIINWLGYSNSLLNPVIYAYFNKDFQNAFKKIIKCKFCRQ

[6] = molecular target: cloned human 5-HT7 receptor (Homo sapiens, UniProt P34969); conditions: cited from earlier work; for pK1: cloned human 5-HT7 receptor, references 1 and 4
cloned human 5-HT7 receptor, sequence (P34969 1-445 isoform P34969-2): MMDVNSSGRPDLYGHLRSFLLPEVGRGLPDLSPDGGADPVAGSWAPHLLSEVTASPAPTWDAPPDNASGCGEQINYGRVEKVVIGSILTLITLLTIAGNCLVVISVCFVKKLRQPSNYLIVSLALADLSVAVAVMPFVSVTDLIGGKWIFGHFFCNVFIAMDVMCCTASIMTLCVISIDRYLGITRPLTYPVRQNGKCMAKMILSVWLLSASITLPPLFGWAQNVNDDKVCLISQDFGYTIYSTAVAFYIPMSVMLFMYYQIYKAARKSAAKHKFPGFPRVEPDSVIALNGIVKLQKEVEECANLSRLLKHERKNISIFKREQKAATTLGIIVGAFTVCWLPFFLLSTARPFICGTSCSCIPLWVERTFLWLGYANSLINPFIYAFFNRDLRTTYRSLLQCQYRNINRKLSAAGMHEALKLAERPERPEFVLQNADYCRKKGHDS

[7] = molecular target: 5-HT1E (Homo sapiens, UniProt P28566); conditions: Adham et al., 1993; cited from earlier work
5-HT1E, sequence (P28566 whole entry): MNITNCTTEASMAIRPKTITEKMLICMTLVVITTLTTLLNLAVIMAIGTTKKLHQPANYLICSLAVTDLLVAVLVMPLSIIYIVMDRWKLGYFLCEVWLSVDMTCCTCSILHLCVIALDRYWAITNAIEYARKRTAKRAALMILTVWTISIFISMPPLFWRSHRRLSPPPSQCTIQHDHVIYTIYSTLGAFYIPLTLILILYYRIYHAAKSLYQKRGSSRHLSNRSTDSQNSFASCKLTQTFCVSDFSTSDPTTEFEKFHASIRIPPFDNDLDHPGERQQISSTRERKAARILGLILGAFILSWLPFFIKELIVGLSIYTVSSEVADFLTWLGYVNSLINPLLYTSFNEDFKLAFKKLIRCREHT

[8] = molecular target: T4, 5-HT2C (Homo sapiens, UniProt P28335); conditions: Hoyer, 1989; Hoyer et al., 1994; cited from earlier work
T4 sequence (P28335 33-458): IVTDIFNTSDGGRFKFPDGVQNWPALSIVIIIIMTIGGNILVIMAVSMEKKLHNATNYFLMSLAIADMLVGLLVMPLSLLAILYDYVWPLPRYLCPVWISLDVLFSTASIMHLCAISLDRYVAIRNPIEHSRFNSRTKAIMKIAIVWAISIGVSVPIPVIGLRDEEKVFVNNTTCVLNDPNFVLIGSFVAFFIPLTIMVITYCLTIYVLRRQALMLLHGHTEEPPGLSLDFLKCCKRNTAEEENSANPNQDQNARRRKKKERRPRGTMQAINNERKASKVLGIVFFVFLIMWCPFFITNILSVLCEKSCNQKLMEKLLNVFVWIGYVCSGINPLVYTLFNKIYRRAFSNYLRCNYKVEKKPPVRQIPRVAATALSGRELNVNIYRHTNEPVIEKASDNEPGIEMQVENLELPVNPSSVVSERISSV

[9] = molecular target: cloned rat 5-HT2B receptor (Rattus norvegicus, UniProt P30994); conditions: cited from earlier work
cloned rat 5-HT2B receptor, sequence (P30994 whole entry): as the sequence (P30994 whole entry) above

[10] = molecular target: 5-HT2A (Homo sapiens, UniProt P28223); conditions: Hoyer, 1989; Hoyer et al., 1994; cited from earlier work
5-HT2A, sequence (P28223 whole entry, species assumed): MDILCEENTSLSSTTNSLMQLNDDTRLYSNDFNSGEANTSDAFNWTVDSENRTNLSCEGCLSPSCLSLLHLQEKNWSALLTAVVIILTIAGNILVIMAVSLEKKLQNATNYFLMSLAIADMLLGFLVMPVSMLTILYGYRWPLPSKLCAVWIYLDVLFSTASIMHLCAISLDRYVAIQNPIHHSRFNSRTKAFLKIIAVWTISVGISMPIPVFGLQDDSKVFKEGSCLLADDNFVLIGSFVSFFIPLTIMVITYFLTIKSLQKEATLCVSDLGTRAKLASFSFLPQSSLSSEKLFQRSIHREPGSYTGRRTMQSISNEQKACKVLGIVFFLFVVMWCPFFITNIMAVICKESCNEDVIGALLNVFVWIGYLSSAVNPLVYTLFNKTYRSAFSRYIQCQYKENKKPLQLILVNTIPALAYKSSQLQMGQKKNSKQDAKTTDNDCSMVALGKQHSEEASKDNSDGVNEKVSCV

[11] = tested on: rat urinary bladder strips; assay: Isolated rat urinary bladder strips: agonist-evoked increase of electrically evoked, nerve-mediated contractions; type: cell-based; conditions: for effect on the magnitude of electrically evoked contractions: agonist alone, electrically stimulated rat bladder strips; for ability to modify the effects of 5-HT: 10 μM
Description: 5-HT receptors in the rat urinary bladder which, when activated by serotonin agonists, cause increases in the magnitude of nerve-mediated contractions, were identified and characterized pharmacologically using isolated strips of rat bladder.
Urinary bladders were isolated from female CD rats (Charles Rivers, 250-300 g). The bladder base (lower third) was removed and the detrusor region was opened into a flat sheet by cutting from the basal opening to the apex. This was cut into quadrants, each of which was attached on its lateral edges by two tissue clips and suspended in a 5 ml tissue bath containing Krebs' solution (pH 7.4 37° C.) of the following composition (mM): NaCl (118), KCl (4.9), NaHCO3 (25), MgCl2 (1.2), NaHPO4 (1.0), CaCl2 (2.5), glucose (11) and aerated continuously with 95% O2/5% CO2. Except in initial experiments, prazosin (0.1 μM), idazoxan (0.3 μM), and indomethacin (10 μM) were included routinely in the buffer to block α1- and α2-adrenoceptors and to prevent the formation of prostaglandins, respectively. After allowing 30 min for equilibration, bladder strips were placed under 1.0 g resting tension, readjusted 6 times over the next 30 min. For most experiments contractile responses were evoked by transmural electrical impulses delivered by Grass S-88 (Grass Instruments, City, Mass.) stimulators (single pulses, 0.1 Hz, 1 ms pulse width, 90 V) through a pair of stainless steel electrodes. Contractions were measured using isometric force transducers (Radnotti Instruments, Monrovia, Calif.) and recorded using MacLab software (AD Instruments, Milford, Mass.).
Bladder strips, in Krebs' solution containing antagonist or vehicle, were stimulated at supramaximal voltage until contractions of consistent magnitude were obtained (ca. 30 min). During this period the Krebs' solution was exchanged at 15 min intervals. Cumulative concentration-effect curves were then constructed by administering 5-carboxamidotryptamine (5-CT) or other agonists in 0.5 log M increments. Responses are expressed as a percent of control, and represent agonist-evoked increases in the magnitude of the electrically evoked contractions relative to that in the absence of agonist (“control”, taken as 100%). […] Therefore, only a single agonist concentration-effect curve was constructed in each tissue.
Concentration-effect curves were fitted (Kaleidagraph, Synergy Software, PCS Inc., Reading PA) to 1-site or 2-site models of agonism as represented by the following equations:
(1-site): Effect=Emax[A]^n/[A]^n+EC50^n;
(2-site): Effect=(Emax^a[A]/[A]+EC50^a+(Emax^b[A]/[A]+EC50^b),
where Emax represents the maximum effect of the agonist, [A] is the agonist molar concentration, EC50 is the concentration of agonist eliciting half its maximum effect, n is the slope factor, and the italicized superscripts (a and b) denote values for the first and second phase of the biphasic curve. Antagonist pKB values were determined using the formula described by Furchgott (1972): pKB=log (agonist concentration ratio −1/antagonist concentration [M]. In some instances, pKB values were determined according to the method of Arunlakshana and Schild (1959), in which the slope of the Schild plot was constrained to unity. Concentration ratios for Schild analyses were calculated from mean EC50 values for the agonist in the absence and presence of the antagonist in experiments from n different animals.

[12] = tested on: rat bladder strips (postjunctional response to α,β-methylene-ATP); type: cell-based; conditions: 0.1 and 10 μM; 5 minute incubation; tetrodotoxin 0.1 μM; α,β-methylene-ATP 3 μM
[13] = molecular target: T5, 5-HT1F (Homo sapiens, UniProt P30939); conditions: Adham et al., 1993; cited from earlier work
T5 sequence (P30939 1-366): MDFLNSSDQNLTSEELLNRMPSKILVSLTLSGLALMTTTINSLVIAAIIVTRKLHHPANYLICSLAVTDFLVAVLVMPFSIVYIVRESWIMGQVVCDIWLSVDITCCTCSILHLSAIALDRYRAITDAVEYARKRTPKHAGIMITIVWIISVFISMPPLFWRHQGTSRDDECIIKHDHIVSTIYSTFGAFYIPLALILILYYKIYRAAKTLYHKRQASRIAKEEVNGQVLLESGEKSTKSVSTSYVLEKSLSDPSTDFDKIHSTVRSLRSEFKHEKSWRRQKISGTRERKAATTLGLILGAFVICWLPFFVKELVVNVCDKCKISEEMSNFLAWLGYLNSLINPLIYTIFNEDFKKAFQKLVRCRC

[14] = molecular target: 5-HT6 (Rattus norvegicus, UniProt P31388); conditions: Hoyer et al., 1994; cited from earlier work
5-HT6, sequence (P31388 whole entry): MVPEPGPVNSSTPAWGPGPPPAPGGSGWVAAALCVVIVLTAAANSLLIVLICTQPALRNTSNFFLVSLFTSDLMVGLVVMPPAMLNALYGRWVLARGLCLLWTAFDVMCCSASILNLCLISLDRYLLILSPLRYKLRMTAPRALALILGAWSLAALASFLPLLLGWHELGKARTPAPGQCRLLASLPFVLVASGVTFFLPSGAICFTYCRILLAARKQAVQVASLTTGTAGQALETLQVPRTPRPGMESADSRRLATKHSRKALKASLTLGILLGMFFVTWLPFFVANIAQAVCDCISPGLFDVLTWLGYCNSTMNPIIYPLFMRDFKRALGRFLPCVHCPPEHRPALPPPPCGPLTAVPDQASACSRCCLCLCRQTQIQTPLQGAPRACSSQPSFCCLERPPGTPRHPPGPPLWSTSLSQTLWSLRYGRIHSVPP

[15] = tested on: 5-HT1D; conditions: Hoyer, 1989; Hoyer et al., 1994; cited from earlier work
[16] = tested on: 5-HT5A; conditions: Hoyer et al., 1994; cited from earlier work
[17] = bladder pKB versus published values
[18] = bladder pKB versus published value

CC(C)NCC(O)COc1cccc2[nH]ccc12 (single isomer, unassigned) [pindolol]
effect on high potency responses to 5-CT [1]: not affected | effect on low potency responses to 5-CT [2]: not affected | pK1 [3]: <6

c1ccc2c(N3CCNCC3)cccc2c1 [1-NP, 1-(1-naphthyl)piperazine]
pKB, 5-HT1B [4]: 6.6 | effect on the high potency (first) phase of the curve ([1]; 0.1 μM): no effect | rightward shift of the first phase of the response to 5-CT ([1]; 1.0 μM): 6.8 ±0.54 fold | Kb ([1]; pKB, inhibition of the first phase of the concentration-effect curve to 5-CT in the rat bladder, antagonists tested in the presence of 0.1 μM 1-NP): 158 nM and 251 nM | pKB, 5-HT1A [5]: 7.2 | pKB, 5-HT7 ([6]; Bard et al., 1993): 7.1 | pK1 [6]: 7.1 | Kb [2]: 3.16 nM | shift of the low potency (second) phase of the concentration-effect curve ([2]; 0.1 μM): 100 fold | second-phase affinity greater than affinity for 5-HT1A, 5-HT1B, 5-HT1E, 5-HT2A and 5-HT7 subtypes [2, 17]: at least 10 fold | slope of Schild analysis ([2]; second phase, 0.01 to 1.0 μM): unit slope | pKB, 5-HT1E [7]: 6.7 | pKB, 5-HT2C [8]: 8.2 | pKB, 5-HT2B ([9]; Wainscott et al., 1993): 8.3 | pK1 ([9]; cloned rat 5-HT2B receptor, reference 1 (Wainscott et al., 1993)): 8.3-8.7 | pKB, 5-HT2A [10]: 7.2

NCCc1c[nH]c2ccc(C(N)=O)cc12 [5-CT, 5-carboxamidotryptamine]
EC50 [1]: 1.58 nM | EC50 [2]: 158 nM | difference in EC50 values between first and second phase [11]: 100 fold | effect on the magnitude of electrically evoked contractions [11]: mimicked | effect on the magnitude of a subsequent contraction to α,β-methylene-ATP [12]: failed to significantly modify

NCCc1c[nH]c2ccc(O)cc12 [5-HT, 5-hydroxytryptamine]
effect on the magnitude of electrically evoked contractions [11]: marked increases

COc1ccc2[nH]cc(CCN)c2c1 [5-MeOT]
effect on the magnitude of electrically evoked contractions [11]: mimicked

CCCN(CCC)C1CCc2cccc(O)c2C1 (stereo not drawn) [8-OH-DPAT]
ability to modify the effects of 5-HT [11]: failure | effect on the magnitude of electrically evoked contractions [11]: inactive

CC(C)n1c(=O)n(C(=O)NC2CC3CCC(C2)N3C)c2ccccc21 (stereo not drawn) [BIMU-8]
ability to modify the effects of 5-HT [11]: failure | effect on the magnitude of electrically evoked contractions [11]: inactive

CCCN(CCC)CCc1c[nH]c2ccc(C(N)=O)cc12 [DP-5-CT]
effect on the magnitude of electrically evoked contractions [11]: mimicked

CC(C)n1cc2c3c(cccc31)C1C[C@@H](C(=O)N[C@H]3CCC[C@H]3O)CN(C)[C@@H]1C2 (stereo partly drawn) [LY215840]
pKB ([1]; inhibition of the first phase of the concentration-effect curve to 5-CT in the rat bladder, antagonists tested in the presence of 0.1 μM 1-NP): 8.2 | pK1 [6]: 7.8

O=C(c1ccc(F)cc1)C1CCN(CCn2c(=O)[nH]c3ccccc3c2=O)CC1 [ketanserin]
effect on high potency responses to 5-CT [1]: not affected | effect on low potency responses to 5-CT [2]: not affected | pK1 [3]: 5.6

CN1C[C@@H](NS(=O)(=O)N(C)C)C[C@@H]2c3cccc4c3c(cn4C)C[C@H]21 [mesulergine]
pKB, 5-HT1B [4]: 4.9 | pKB, 5-HT1A [5]: 6.2 | pKB, 5-HT1F [13]: < 5 | pKB, 5-HT6 [14]: 5.8 | pKB, 5-HT2A [10]: 9.1

CSc1ccc2c(c1)C(N1CCN(C)CC1)Cc1ccccc1S2 (stereo not drawn) [methiothepin]
pKB, 5-HT1B [4]: 7.3 | pKB, 5-HT1E [7]: 6.7 | pKB, 5-HT1D [15]: 7.3 | pKB, 5-HT1F [13]: 6.2 | pKB, 5-HT5A [16]: 7.0

O=C(CCCN1CCC2(CC1)C(=O)NCN2c1ccccc1)c1ccc(F)cc1 [spiperone]
pKB, 5-HT1B [4]: 4.4 | first-phase affinity greater than that for the 5-HT2C receptor subtype [1, 18]: ~30 fold | first-phase affinity lower than that for the 5-HT2A receptor subtype [1, 18]: ~30 fold | first-phase affinity greater than that for 5-HT1B, 5-HT1D, 5-HT5A and 5-HT2B receptor subtype [1, 17]: at least 100 fold | pKB, 5-HT2C [8]: 5.9 | pKB, 5-HT1D [15]: 4.8 | pKB, 5-HT5A [16]: 5.6

CN1[C@@H]2CC[C@H]1C[C@@H](OC(=O)c1c[nH]c3ccccc13)C2 [tropisetron]
effect on high potency responses to 5-CT [1]: not affected | effect on low potency responses to 5-CT [2]: not affected | pK1 [3]: <4.5

CC(N)Cc1c[nH]c2ccc(O)cc12 (stereo not drawn) [α-Me-5-HT, α-methyl-5-hydroxytryptamine]
effect on the magnitude of electrically evoked contractions [11]: mimicked
